Laboratory results reported in the OligoGym collection.
Oligonucleotides are given in HELM: sugar(base)linkage, 5' to 3'; d 2'-deoxyribose, r ribose, m 2'-O-methylribose, p phosphate. ss, as = sense and antisense strand

What follows are substances tested against TMEM63B (assay: reporter assay of Huesken 2005). Conditions: siRNA.
Also: test concentration or dose not given here.

Substance	normalised inhibition (eCFP-eYFP dual reporter)
RNA1{r(G)p.r(A)p.r(C)p.r(C)p.r(G)p.r(G)p.r(U)p.r(A)p.r(U)p.r(G)p.r(A)p.r(G)p.r(C)p.r(G)p.r(U)p.r(C)p.r(U)p.r(C)p.r(A)p.d(T)p.d(T)}|RNA2{r(U)p.r(G)p.r(A)p.r(G)p.r(A)p.r(C)p.r(G)p.r(C)p.r(U)p.r(C)p.r(A)p.r(U)p.r(A)p.r(C)p.r(C)p.r(G)p.r(G)p.r(U)p.r(C)p.d(A)p.d(T)}$$$RNA1{StrandType:ss}|RNA2{StrandType:as}$	99%
RNA1{r(G)p.r(A)p.r(C)p.r(U)p.r(U)p.r(C)p.r(A)p.r(A)p.r(C)p.r(G)p.r(U)p.r(G)p.r(U)p.r(G)p.r(U)p.r(A)p.r(A)p.r(A)p.r(U)p.d(T)p.d(T)}|RNA2{r(A)p.r(U)p.r(U)p.r(U)p.r(A)p.r(C)p.r(A)p.r(C)p.r(A)p.r(C)p.r(G)p.r(U)p.r(U)p.r(G)p.r(A)p.r(A)p.r(G)p.r(U)p.r(C)p.d(C)p.d(T)}$$$RNA1{StrandType:ss}|RNA2{StrandType:as}$	102%
RNA1{r(G)p.r(A)p.r(C)p.r(U)p.r(U)p.r(U)p.r(G)p.r(A)p.r(C)p.r(C)p.r(A)p.r(A)p.r(A)p.r(G)p.r(G)p.r(G)p.r(A)p.r(C)p.r(A)p.d(T)p.d(T)}|RNA2{r(U)p.r(G)p.r(U)p.r(C)p.r(C)p.r(C)p.r(U)p.r(U)p.r(U)p.r(G)p.r(G)p.r(U)p.r(C)p.r(A)p.r(A)p.r(A)p.r(G)p.r(U)p.r(C)p.d(A)p.d(A)}$$$RNA1{StrandType:ss}|RNA2{StrandType:as}$	89.5%
RNA1{r(G)p.r(A)p.r(G)p.r(A)p.r(G)p.r(G)p.r(C)p.r(G)p.r(C)p.r(A)p.r(A)p.r(C)p.r(G)p.r(U)p.r(G)p.r(A)p.r(A)p.r(G)p.r(C)p.d(T)p.d(T)}|RNA2{r(G)p.r(C)p.r(U)p.r(U)p.r(C)p.r(A)p.r(C)p.r(G)p.r(U)p.r(U)p.r(G)p.r(C)p.r(G)p.r(C)p.r(C)p.r(U)p.r(C)p.r(U)p.r(C)p.d(G)p.d(G)}$$$RNA1{StrandType:ss}|RNA2{StrandType:as}$	56.8%
RNA1{r(G)p.r(A)p.r(G)p.r(G)p.r(C)p.r(G)p.r(C)p.r(A)p.r(A)p.r(C)p.r(G)p.r(U)p.r(G)p.r(A)p.r(A)p.r(G)p.r(C)p.r(G)p.r(G)p.d(T)p.d(T)}|RNA2{r(C)p.r(C)p.r(G)p.r(C)p.r(U)p.r(U)p.r(C)p.r(A)p.r(C)p.r(G)p.r(U)p.r(U)p.r(G)p.r(C)p.r(G)p.r(C)p.r(C)p.r(U)p.r(C)p.d(T)p.d(C)}$$$RNA1{StrandType:ss}|RNA2{StrandType:as}$	59.5%
RNA1{r(G)p.r(A)p.r(U)p.r(A)p.r(C)p.r(U)p.r(G)p.r(U)p.r(G)p.r(G)p.r(A)p.r(C)p.r(C)p.r(C)p.r(C)p.r(A)p.r(G)p.r(A)p.r(A)p.d(T)p.d(T)}|RNA2{r(U)p.r(U)p.r(C)p.r(U)p.r(G)p.r(G)p.r(G)p.r(G)p.r(U)p.r(C)p.r(C)p.r(A)p.r(C)p.r(A)p.r(G)p.r(U)p.r(A)p.r(U)p.r(C)p.d(T)p.d(G)}$$$RNA1{StrandType:ss}|RNA2{StrandType:as}$	73.8%
RNA1{r(G)p.r(C)p.r(A)p.r(A)p.r(C)p.r(G)p.r(C)p.r(C)p.r(A)p.r(U)p.r(G)p.r(G)p.r(A)p.r(C)p.r(C)p.r(U)p.r(G)p.r(C)p.r(U)p.d(T)p.d(T)}|RNA2{r(A)p.r(G)p.r(C)p.r(A)p.r(G)p.r(G)p.r(U)p.r(C)p.r(C)p.r(A)p.r(U)p.r(G)p.r(G)p.r(C)p.r(G)p.r(U)p.r(U)p.r(G)p.r(C)p.d(C)p.d(G)}$$$RNA1{StrandType:ss}|RNA2{StrandType:as}$	71.1%
RNA1{r(G)p.r(C)p.r(A)p.r(A)p.r(C)p.r(G)p.r(U)p.r(G)p.r(A)p.r(A)p.r(G)p.r(C)p.r(G)p.r(G)p.r(C)p.r(A)p.r(U)p.r(C)p.r(A)p.d(T)p.d(T)}|RNA2{r(U)p.r(G)p.r(A)p.r(U)p.r(G)p.r(C)p.r(C)p.r(G)p.r(C)p.r(U)p.r(U)p.r(C)p.r(A)p.r(C)p.r(G)p.r(U)p.r(U)p.r(G)p.r(C)p.d(G)p.d(C)}$$$RNA1{StrandType:ss}|RNA2{StrandType:as}$	72.4%
RNA1{r(G)p.r(C)p.r(A)p.r(C)p.r(A)p.r(A)p.r(G)p.r(U)p.r(G)p.r(C)p.r(U)p.r(A)p.r(C)p.r(A)p.r(C)p.r(U)p.r(U)p.r(U)p.r(C)p.d(T)p.d(T)}|RNA2{r(G)p.r(A)p.r(A)p.r(A)p.r(G)p.r(U)p.r(G)p.r(U)p.r(A)p.r(G)p.r(C)p.r(A)p.r(C)p.r(U)p.r(U)p.r(G)p.r(U)p.r(G)p.r(C)p.d(A)p.d(T)}$$$RNA1{StrandType:ss}|RNA2{StrandType:as}$	83.6%
RNA1{r(G)p.r(C)p.r(A)p.r(C)p.r(A)p.r(U)p.r(C)p.r(A)p.r(U)p.r(C)p.r(G)p.r(G)p.r(G)p.r(C)p.r(U)p.r(G)p.r(C)p.r(U)p.r(G)p.d(T)p.d(T)}|RNA2{r(C)p.r(A)p.r(G)p.r(C)p.r(A)p.r(G)p.r(C)p.r(C)p.r(C)p.r(G)p.r(A)p.r(U)p.r(G)p.r(A)p.r(U)p.r(G)p.r(U)p.r(G)p.r(C)p.d(C)p.d(G)}$$$RNA1{StrandType:ss}|RNA2{StrandType:as}$	69.9%
RNA1{r(G)p.r(C)p.r(A)p.r(U)p.r(U)p.r(U)p.r(U)p.r(G)p.r(A)p.r(G)p.r(G)p.r(A)p.r(A)p.r(G)p.r(C)p.r(C)p.r(U)p.r(A)p.r(C)p.d(T)p.d(T)}|RNA2{r(G)p.r(U)p.r(A)p.r(G)p.r(G)p.r(C)p.r(U)p.r(U)p.r(C)p.r(C)p.r(U)p.r(C)p.r(A)p.r(A)p.r(A)p.r(A)p.r(U)p.r(G)p.r(C)p.d(T)p.d(T)}$$$RNA1{StrandType:ss}|RNA2{StrandType:as}$	87.3%
RNA1{r(G)p.r(C)p.r(C)p.r(U)p.r(A)p.r(C)p.r(C)p.r(A)p.r(U)p.r(G)p.r(A)p.r(U)p.r(C)p.r(A)p.r(A)p.r(C)p.r(C)p.r(C)p.r(C)p.d(T)p.d(T)}|RNA2{r(G)p.r(G)p.r(G)p.r(G)p.r(U)p.r(U)p.r(G)p.r(A)p.r(U)p.r(C)p.r(A)p.r(U)p.r(G)p.r(G)p.r(U)p.r(A)p.r(G)p.r(G)p.r(C)p.d(A)p.d(C)}$$$RNA1{StrandType:ss}|RNA2{StrandType:as}$	39.6%
RNA1{r(G)p.r(C)p.r(C)p.r(U)p.r(A)p.r(C)p.r(G)p.r(C)p.r(C)p.r(U)p.r(G)p.r(G)p.r(A)p.r(U)p.r(G)p.r(A)p.r(U)p.r(G)p.r(U)p.d(T)p.d(T)}|RNA2{r(A)p.r(C)p.r(A)p.r(U)p.r(C)p.r(A)p.r(U)p.r(C)p.r(C)p.r(A)p.r(G)p.r(G)p.r(C)p.r(G)p.r(U)p.r(A)p.r(G)p.r(G)p.r(C)p.d(T)p.d(G)}$$$RNA1{StrandType:ss}|RNA2{StrandType:as}$	72.3%
RNA1{r(G)p.r(C)p.r(C)p.r(U)p.r(U)p.r(U)p.r(G)p.r(U)p.r(C)p.r(A)p.r(C)p.r(C)p.r(U)p.r(U)p.r(C)p.r(C)p.r(A)p.r(C)p.r(A)p.d(T)p.d(T)}|RNA2{r(U)p.r(G)p.r(U)p.r(G)p.r(G)p.r(A)p.r(A)p.r(G)p.r(G)p.r(U)p.r(G)p.r(A)p.r(C)p.r(A)p.r(A)p.r(A)p.r(G)p.r(G)p.r(C)p.d(C)p.d(A)}$$$RNA1{StrandType:ss}|RNA2{StrandType:as}$	72.5%
